From ChEMBL document CHEMBL1201862, “PubChem BioAssay data set” (2004)
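96-well plates; 48 h exposure; 5 concentrations. Endpoints by linear interpolation between flanking doses. Not reached: highest tested concentration assigned. GI50 = concentration required for 50% inhibition of growth.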 The source made the active and inactive calls. Cut-off read from the data, not from the text of the source: active = GI50 up to about 1.1 µM and inactive = higher. Where a SMILES comes first, the peptide text is derived from it. The star is where a group is joined. Boc = CC(C)(C)OC(=O)*

Assays:
Experiment in all cases: inhibition of tumour cell growth, NCI panel, 48 h
[1] = tested on: Malme-3M
[2] = tested on: SK-MEL-28
[3] = tested on: SK-MEL-5
[4] = tested on: HOP-62
[5] = tested on: A549
[6] = tested on: NCI-H226
[7] = tested on: PC-3
[8] = tested on: 786-0
[9] = tested on: NCI-H23
[10] = tested on: T47D
[11] = tested on: ACHN
[12] = tested on: OVCAR-5
[13] = tested on: KM12
[14] = tested on: U-251
[15] = tested on: DU-145
[16] = tested on: HOP-92
[17] = tested on: K562
[18] = tested on: UACC-62
[19] = tested on: IGROV-1
[20] = tested on: RXF 393

Measured: GI50

COC(=O)c1c2n(c3ccccc13)C[C@H]1OC(C)(C)O[C@@H]21
inactive: [1] > 47 µM | [2] > 100 µM | [3] > 100 µM | [4] > 100 µM | [5] > 100 µM | [6] > 100 µM | [7] > 100 µM | [8] > 100 µM | [9] > 100 µM | [10] > 100 µM | [11] > 100 µM | [12] > 100 µM | [13] > 43.8 µM | [14] > 100 µM | [15] > 100 µM | [16] > 100 µM | [17] > 100 µM | [18] > 100 µM | [19] > 100 µM | [20] > 100 µM

COc1cc2cc(C(=O)N3CC(CCl)c4ccccc43)[nH]c2c(OC)c1OC (stereo not given)
inactive: [1] 36.5 µM | [2] > 100 µM | [3] 24.7 µM | [4] > 56.2 µM | [5] 47.1 µM | [6] > 100 µM | [7] 21.9 µM | [8] 97.5 µM | [9] > 100 µM | [10] 13.8 µM | [11] > 77.3 µM | [12] > 100 µM | [13] 23.5 µM | [14] > 69.2 µM | [15] 62.1 µM | [16] > 100 µM | [17] 3.1 µM | [18] 55.5 µM | [19] > 100 µM | [20] > 100 µM

CCCn1c(C23CC4CC(CC(C4)C2)C3)nc2ccc(Cl)cc2c1=O
inactive: [1] > 100 µM | [2] 57.5 µM | [3] 41.3 µM | [4] 23.4 µM | [5] 31.2 µM | [6] > 100 µM | [7] 37.1 µM | [8] 34.2 µM | [9] 50.5 µM | [10] 25.8 µM | [11] 21.2 µM | [12] 74.8 µM | [13] 31.9 µM | [14] 45.1 µM | [15] 27.9 µM | [16] 42.8 µM | [17] 43.6 µM | [18] 25.9 µM | [19] 51.9 µM | [20] 7.11 µM

CCC(C)(C)/C(CC(O)(C(F)(F)F)C(F)(F)F)=N\O
inactive: [1] > 100 µM | [2] > 100 µM | [3] > 100 µM | [4] > 100 µM | [5] > 100 µM | [6] > 100 µM | [7] > 100 µM | [8] > 100 µM | [9] > 100 µM | [10] > 100 µM | [11] > 100 µM | [12] > 100 µM | [13] > 100 µM | [14] > 100 µM | [15] > 100 µM | [16] > 100 µM | [17] > 100 µM | [18] > 100 µM | [19] > 100 µM | [20] > 100 µM

O=C1c2ccccc2CN1c1ccc(OCCN2CCCCC2)cc1
inactive: [1] > 10 µM | [2] > 10 µM | [3] > 10 µM | [4] > 10 µM | [5] > 10 µM | [6] > 10 µM | [7] > 10 µM | [8] > 10 µM | [9] > 10 µM | [10] > 10 µM | [11] > 10 µM | [12] > 10 µM | [13] > 10 µM | [14] > 10 µM | [15] > 10 µM | [16] > 10 µM | [17] > 10 µM | [18] > 10 µM | [19] > 10 µM | [20] > 10 µM

CCC1C(c2ccccc2O)c2cc3c(cc2OC1N1CCOCC1)OCO3 (stereo not given)
inactive: [1] 13 µM | [2] 17.6 µM | [3] 16.7 µM | [4] 15.4 µM | [5] 14.4 µM | [6] 15.7 µM | [7] 12.5 µM | [8] 21.1 µM | [9] 18.2 µM | [10] 13.2 µM | [11] 13.3 µM | [12] 14.9 µM | [13] 13 µM | [14] 13.6 µM | [15] 14.8 µM | [16] 13 µM | [17] 11.5 µM | [18] 13.1 µM | [19] 15.8 µM | [20] 13.3 µM

CCOC(=O)c1c2ccccc2n2c(=O)n(-c3ccccc3)nnc12
inactive: [1] > 100 µM | [2] > 100 µM | [3] 15.7 µM | [4] 27.5 µM | [5] 63.4 µM | [6] > 40.2 µM | [7] > 90.6 µM | [8] 62.4 µM | [9] > 87.1 µM | [10] 9.08 µM | [11] > 27 µM | [12] > 100 µM | [13] 61 µM | [14] 98.4 µM | [15] > 100 µM | [16] > 100 µM | [17] 16.6 µM | [18] 10.4 µM | [19] 79.3 µM | [20] > 55.6 µM

CC(C)(C)[Si](C)(C)OC1CCOC1(O)c1ccccn1 (stereo not given)
inactive: [1] > 100 µM | [2] > 100 µM | [3] > 100 µM | [4] > 100 µM | [5] > 100 µM | [6] > 100 µM | [7] > 100 µM | [8] > 100 µM | [9] > 100 µM | [10] > 100 µM | [11] > 100 µM | [12] > 100 µM | [13] > 100 µM | [14] 39.6 µM | [15] > 100 µM | [16] > 100 µM | [17] 57.9 µM | [18] > 100 µM | [19] > 100 µM | [20] > 100 µM

Oc1cc(-c2ccccc2)nc2c(S)cccc12
inactive: [1] > 100 µM | [2] > 100 µM | [3] 37.1 µM | [4] > 100 µM | [5] > 100 µM | [6] 17.2 µM | [7] 47.3 µM | [8] > 100 µM | [9] > 100 µM | [10] 29 µM | [11] 95.3 µM | [12] > 100 µM | [13] > 100 µM | [14] > 100 µM | [15] > 100 µM | [16] 63.2 µM | [17] 81.3 µM | [18] > 100 µM | [19] > 100 µM | [20] 35.9 µM

CC(NC(=O)C(NC(=O)OC(C)(C)C)C(C)C)C(=O)NCC(=O)O (stereo not drawn) (Boc-Val-Ala-Gly-OH; configuration not given here)
inactive: [1] > 100 µM | [2] > 100 µM | [3] > 100 µM | [4] > 100 µM | [5] > 100 µM | [6] > 10 µM | [7] > 100 µM | [8] > 100 µM | [9] > 100 µM | [10] > 100 µM | [11] > 100 µM | [12] > 100 µM | [13] > 100 µM | [14] > 100 µM | [15] > 100 µM | [16] > 100 µM | [17] > 100 µM | [18] > 100 µM | [19] > 100 µM | [20] > 100 µM

C[C@]12C=CC(=O)C=C1CC[C@@H]1[C@@H]2C(=O)C[C@@]2(C)[C@H]1CC[C@]2(O)C(=O)CO [PREDNISONE]
inactive: [1] > 100 µM | [2] > 100 µM | [3] > 100 µM | [4] > 100 µM | [5] > 100 µM | [6] > 100 µM | [7] > 100 µM | [8] > 100 µM | [9] > 100 µM | [10] > 100 µM | [11] > 100 µM | [12] > 100 µM | [13] > 100 µM | [14] > 100 µM | [15] > 100 µM | [16] > 100 µM | [17] > 100 µM | [18] > 100 µM | [19] > 100 µM | [20] > 100 µM
